# Experiments:
# [1] = system: male Sprague-Dawley rats; assay: Rat hot plate assay; settings: for hot plate MED (acute pain): 52° C., cutoff 30 seconds
# Protocol: Morphine sulphate (1-10 mg/kg) was dissolved in 0.9% normal saline solution (NSS)(vehicle) and administered SC 1 hour prior to testing against vehicle. Data were analyzed by a two-way ANOVA using a Bonferroni Multiple Comparison Test,***P<0.001.
# Morphine sulphate (1-10 mg/kg) was dissolved in 0.9% normal saline solution (NSS)(vehicle) and administered SC 1 hour prior to testing against vehicle. % MPE=Percent Maximum Possible Effect. % MPE=(test latency-baseline)/(cutoff-baseline). Data was analyzed using a Bonferroni Multiple Comparison Test,***P<0.001.
# Morphine sulphate (10 mg/kg), the positive control, was dissolved in 0.9% NSS (vehicle). The formulations were administered SC 1 hour prior to testing against vehicle. Data were analyzed by a two-way ANOVA using a Bonferroni multiple comparisons test, where *P<0.05 and ***P<0.001. Data are represented as the means+S.E.M.
# Morphine sulphate (10 mg/kg) was dissolved in 0.9% NSS (vehicle). The formulations were administered SC 1 hour prior to testing against vehicle. % MPE=Percent Maximum Possible Effect. % MPE=(test latency-baseline)/(cutoff (30 s)-baseline). Data were analyzed by a two-way ANOVA using Bonferroni Multiple Comparisons test for post-hoc analysis, where *P<0.05 and ***P<0.001. Data are represented as the means+SEM.
# The positive control, morphine sulfate in 0.9% NS, was administered SC 1 hour prior to testing. Rats were assessed one day prior (BL) and then 1, 3 and 5 hours post-dosing. Hot Plate was set to 52° C. and cutoff was 30 seconds. Data were analyzed by a two-way ANOVA using a Bonferroni Multiple Comparisons Test, where *P<0.05, ***P<0.001 and ****P<0.0001 versus vehicle. Data are represented as the means+S.E.M from two combined studies.
# Oxycodone hydrochloride (0.3-5 mg/kg) was dissolved in 0.9% normal saline solution (NSS)(vehicle) and administered SC 1 hour prior to testing against vehicle. Hot plate was set to 52° C. and cutoff was 30 seconds. Data were analyzed by a two-way ANOVA using a Bonferroni multiple comparisons test, where ****P<0.0001. Data are represented as the means+S.E.M.
# Compound was administered SC 1 hour prior to testing. Oxycodone hydrochloride (0.3-5 mg/kg) was dissolved in 0.9% normal saline solution (NSS)(vehicle) and administered SC 1 hour prior to testing against vehicle. Hot plate was set to 52° C. and cutoff was 30 seconds. % MPE=. Percent Maximum Possible Effect. % MPE=(test latency-baseline)/(cutoff (30 s)-baseline). Data were analyzed by a two-way ANOVA using Bonferroni Multiple Comparisons test for post-hoc analysis, ****P<0.000. Data are represented as the means+SEM.
# Oxycodone HCl was administered SC 1 hour prior to testing. Thermal latency was assessed the day prior (BL) and then 1, 3 and 5 hours post-oxycodone dosing. The hotplate was set to 52° C. and the cutoff was 30 seconds. Oxycodone was dissolved in 0.9% NS (vehicle). […] Data were analyzed by a two-way ANOVA using the Bonferroni Multiple Comparisons test for post-hoc analysis where, ***P<0.001. Data are represented as the means+SEM.
# Oxycodone HCl was administered PO 1 hour prior to testing, while morphine sulfate, the positive control, was administered SC 1 hour prior to testing. Behavior was assessed the day prior (BL) and then 1, 3, 5 and 24 hours post-compound administration. The hot plate was set to 52° C. and the cutoff was 30 seconds. Oxycodone was dissolved in water (vehicle), while morphine sulfate was dissolved in 0.9% NS. Data were analyzed by a two-way ANOVA using a Bonferroni Multiple Comparisons Test, where ****P<0.0001.
# Rats were assessed for thermal latency the day prior to dosing, then 1.5, 3 and 5 hours post-morphine administration. Data were analyzed by a two-way ANOVA using the Bonferroni Multiple Comparisons Test, where ****P<0.0001 compared to vehicle+vehicle. Data are represented as the means+S.E.M.
# [2] = system: male Sprague-Dawley rats; assay: Rat tail flick assay; settings: for tail flick MED (acute pain): intensity 40, cutoff 20 seconds
# Protocol: Morphine sulphate (1-10 mg/kg) was dissolved in 0.9% normal saline solution (NSS)(vehicle) and administered SC 1 hour prior to testing against vehicle. Data were analyzed by a two-way ANOVA using a Bonferroni post-hoc test, *P<0.05, ***P<0.001.
# Morphine sulphate (1-10 mg/kg) was dissolved in 0.9% normal saline solution (NSS)(vehicle) and administered SC 1 hour prior to testing against vehicle. % MPE=Percent of Maximum Possible Effect. % MPE=(test latency-baseline)/(cutoff(20 s)-baseline)*100. Data were analyzed by a two-way ANOVA using a Bonferroni post-hoc test, *P<0.05, **P<0.01, ***P<0.001.
# Morphine sulphate (10 mg/kg) was dissolved in 0.9% NSS (vehicle). The formulations were administered SC 1 hour prior to testing against vehicle. Data were analyzed by a two-way ANOVA using a Bonferroni multiple comparisons test, *P<0.05, ***P<0.001.
# Morphine sulphate (10 mg/kg) was dissolved in 0.9% NSS (vehicle). The formulations were administered SC 1 hour prior to testing against vehicle. % MPE=Percent Maximum Possible Effect. % MPE=(test latency-baseline)/(cutoff(20 s)-baseline)*100. Data were analyzed by a two-way ANOVA using a Bonferroni multiple comparisons test, ***P<0.001.
# The positive control, morphine sulfate in 0.9% NS was administered SC 1 hour prior to testing. Rats were assessed the day prior (BL) and then 1, 3 and 5 hours post-dosing. Tail Flick was set to 40 intensity and cutoff 20 seconds. Data were analyzed by a two-way ANOVA using a Bonferroni Multiple Comparisons Test, where *P<0.05,***P<0.001 and ****P<0.0001. Data are represented as the means+S.E.M of two combined studies.
# Oxycodone hydrochloride (0.3-5 mg/kg) was dissolved in 0.9% normal saline solution (NSS)(vehicle) and administered SC 1 hour prior to testing against vehicle. Data were analyzed by a two-way ANOVA using a Bonferroni multiple comparisons test, ****P<0.001.
# Oxycodone hydrochloride (0.3-5 mg/kg) was dissolved in 0.9% normal saline solution (NSS)(vehicle) and administered SC 1 hour prior to testing against vehicle. % MPE=Percent Maximum Possible Effect. % MPE=(test latency-baseline)/(cutoff(20 s)-baseline)*100. Data were analyzed by a two-way ANOVA using a Bonferroni multiple comparisons test, ****P<0.001.
# Oxycodone HCl and vehicle were administered SC 1 hour prior to testing. Rats were assessed one day prior (BL) and then 1, 3 and 5 hours post-oxycodone administration. The tail flick was set to an intensity of 40 and the cutoff was 20 seconds. Oxycodone was dissolved in 0.9% (vehicle). […] Data were analyzed by a two-way ANOVA followed by the Bonferroni Multiple Comparisons Test where, *P<0.05 and ****P<0.001.
# Oxycodone HCl was administered PO 1 hour prior to testing, while morphine sulfate, the positive control, was administered SC 1 Hour prior to testing. Behavior was assessed the day prior (BL) to dosing, and then 1, 3, 5 and 24 hours post-compound administration. The tail flick was set to an intensity of 40 and 20 seconds was used as the cutoff. Oxycodone was dissolved in water (vehicle), while morphine was dissolved in 0.9% NS. Data were analyzed by a two-way ANOVA using a Bonferroni Multiple Comparisons Test, where *P<0.05, **P<0.01, ***P<0.001 and * * * *P<0.0001.
# Rats were assessed for tail flick latency the day prior to dosing, then 1.5, 3 and 5 hours post-morphine administration. Data were analyzed by a two-way ANOVA using the Bonferroni Multiple Comparisons Test, where ****P<0.0001 compared to vehicle+vehicle. Data are represented as the means+S.E.M.
# Rats were assessed for thermal latency 1.5, 3 and 5 hours post-morphine administration. % MPE=Percent Maximum Possible Effect. % MPE=(test latency-baseline)/(cutoff(20 s)-baseline)*100. Data were analyzed by a two-way ANOVA using a Bonferroni multiple comparisons test for post-hoc analysis where *P<0.05 and ****P<0.001. Data are represented as the means+SEM.
# Rats were tested 1 hour after oxycodone injection.
# [3] = system: male Sprague-Dawley rats; assay: Stomach weight (gastric emptying) after charcoal meal; assay type: in vivo, rat; settings: morphine sulfate 1-10 mg/kg SC, 0.5 hour before charcoal meal; vs vehicle
# Protocol: Morphine sulfate (1-10 mg/kg) or 0.9% normal saline (vehicle) was administered SC to the test subjects. 0.5 hour later, a charcoal meal (1 ml/100 grams) was administered PO to the test subjects. One hour after the charcoal meal, the test subjects were euthanized by CO2 and the stomachs were removed and weighed. Data were analyzed using a one-way ANOVA followed by the Dunnett's Multiple Comparisons test where *P<0.05, **P<0.01 and ***P<0.001. […] This effect was dose dependent with a greater magnitude of effect observed with increasing dose.
# [4] = system: male Sprague-Dawley rats; assay: Charcoal meal GI transit, opioid alone; settings: for GI transit (% of the small intestine travelled by a charcoal meal): vs vehicle
# Protocol: 0.5 hour later, a charcoal meal (1 ml/100 grams) was orally administered (PO) to the test subjects.
# One hour after the charcoal meal, the test subjects were euthanized by CO2 and the gastrointestinal tract was removed from the stomach to the cecum. The length of the small intestine and the distance (cm) to the leading edge of the charcoal were recorded. Data were analyzed using a one-way ANOVA followed by the Dunnett's Multiple Comparisons test where *P<0.05, **P<0.01 and***P<0.001.
# The length of the small intestine and the distance (cm) to the leading edge of the charcoal were recorded. Data were analyzed using a one-way ANOVA followed by Bonferroni's Multiple Comparisons Test where *P<0.05, **P<0.01 and ****P<0.001 vs. vehicle. Data are represented as the means+S.E.M.
# One hour after charcoal, all rats were euthanized by CO2 and the GI tract was removed from the stomach to the cecum. The length of the small intestine and the distance (cm) to the leading edge of charcoal was recorded. Data were analyzed using a one-way ANOVA with Bonferonni's Post-Test where ****P<0.0001 vs. vehicle. Data are represented as the means+S.E.M.
# One hour later, the rats were euthanized by CO2 and the gastrointestinal tract was removed from the stomach to the cecum. The length of the small intestine and the distance (cm) to the leading edge of charcoal were recorded. Data were analyzed using a one-way ANOVA followed by the Dunnett's Multiple Comparisons test where ***P<0.001. Data are represented as the mean+S.E.M.
# Rats were dosed with Oxycodone HCl/Oxy or vehicle (water) PO once daily for 5 days (chronic). Additional groups were dosed only once on day 5 (acute). […] One hour after charcoal, all rats were euthanized by CO2 and the GI tract was removed from the stomach to the cecum. The length of the small intestine and the distance (cm) to the leading edge of charcoal was recorded. Data were analyzed using a one-way ANOVA with Bonferonni's Multiple Comparison Test where * P<0.05, ****P<0.0001 vs. vehicle (chronic), ### vs. oxycodone (acute). Data are represented as the means+S.E.M.
# [5] = morphine sulphate 1-10 mg/kg SC 1 hour prior to testing
# [6] = oxycodone hydrochloride 0.3-5 mg/kg SC 1 hour prior to testing
Compound,"hot plate % MPE [1, 5]","hot plate latency to nocifensive response [1, 5]","tail flick % MPE [2, 5]","tail flick latency to nocifensive response [2, 5]",stomach weight (gastric emptying) [3],"GI transit (% of the small intestine travelled by a charcoal meal) ([4]; morphine sulfate 1-10 mg/kg SC, 0.5 hour before charcoal meal)","rats found dead ([1]; oxycodone HCl 10 mg/kg SC, at the 3 hr time point)",hot plate MED (acute pain) ([1]; oxycodone HCl PO) [mg/kg],hot plate MED (acute pain) ([1]; oxycodone HCl SC) [mg/kg],"hot plate % MPE [1, 6]","hot plate latency to nocifensive response [1, 6]","rats found dead ([2]; oxycodone HCl 10 mg/kg SC dosing group, at the 3 hr time point)",tail flick MED (acute pain) ([2]; oxycodone HCl PO) [mg/kg],tail flick MED (acute pain) ([2]; oxycodone HCl SC) [mg/kg],"tail flick % MPE [2, 6]","tail flick latency to nocifensive response [2, 6]",tolerance to inhibition of GI transit on repeated dosing ([4]; oxycodone HCl PO once daily for 5 days (chronic) vs single dose on day 5 (acute)),"GI transit (% of the small intestine travelled by a charcoal meal) ([4]; oxycodone hydrochloride 0.3-5 mg/kg SC, 1 hour before charcoal meal)"
"CN1CC[C@]23c4c5ccc(O)c4O[C@H]2[C@@H](O)C=C[C@H]3[C@H]1C5.O=S(=O)(O)O [morphine, morphine sulphate]",increased % of the maximal possible effect,increased latency to nocifensive response,increased % of the maximal possible effect,increased latency to nocifensive response,increased stomach weight due to delayed gastric emptying,decreases gastrointestinal transit,,,,,,,,,,,,
"COc1ccc2c3c1O[C@H]1C(=O)CC[C@@]4(O)[C@@H](C2)N(C)CC[C@]314.Cl [oxycodone, oxycodone hydrochloride]",,,,,,,4 out of 10,10,3,increased % of the maximal possible effect,increased latency to nocifensive response,4 out of 10,10,3,increased % of the maximal possible effect,increased latency to nocifensive response,produces some tolerances to its acute effect on the inhibition of GI transit,decreases gastrointestinal transit

# From US10226457B2, “Systems and methods for treating an opioid-induced adverse pharmacodynamic response” (Purdue Pharma L.P., priority 2014, dated 2019)
